Laboratory results as given in patent US9487515B2, “Compounds modulating c-fms and/or c-kit activity and uses therefor” (Plexxikon Inc., priority 2006, dated 2016).

Target: c-kit (Homo sapiens, UniProt P10721)
Experiment: c-kit assays of Examples 40 and 41 (AlphaScreen kinase assays at 10 and 100 μM ATP, 33P-ATP filter assay, M-07e SCF-stimulated proliferation and phosphorylation)

Sequence of c-kit (P10721 with tags, fused parts or gaps): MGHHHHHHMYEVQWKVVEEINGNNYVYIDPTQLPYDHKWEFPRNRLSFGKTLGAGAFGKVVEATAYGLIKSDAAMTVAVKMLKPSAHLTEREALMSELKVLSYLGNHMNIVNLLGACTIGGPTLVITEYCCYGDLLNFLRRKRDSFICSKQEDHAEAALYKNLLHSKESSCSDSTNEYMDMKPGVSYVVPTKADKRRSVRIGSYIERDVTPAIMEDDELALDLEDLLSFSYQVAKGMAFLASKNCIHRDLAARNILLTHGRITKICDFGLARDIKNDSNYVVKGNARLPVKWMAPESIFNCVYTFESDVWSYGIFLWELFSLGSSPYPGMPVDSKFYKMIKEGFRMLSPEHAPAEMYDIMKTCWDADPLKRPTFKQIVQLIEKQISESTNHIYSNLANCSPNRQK

| IC50 | Structure (SMILES) |
| --- | --- |
| < 1000 nM | Cc1nn(Cc2ccc(C(F)(F)F)o2)c(C)c1Cc1c[nH]c2ncccc12 [P-0138, 3-[3,5-Dimethyl-1-(5-trifluoromethyl-furan-2-ylmethyl)-1H-pyrazol-4-ylmethyl]-1H-pyrrolo[2,3-b]pyridine] |
| < 1000 nM | Cc1nn(C(=O)NCCc2ccccc2F)c(C)c1Cc1c[nH]c2ncccc12 [P-0148, 3,5-Dimethyl-4-(1H-pyrrolo[2,3-b]pyridin-3-ylmethyl)-pyrazole-1-carboxylic acid [2-(2-fluoro-phenyl)-ethyl]-amide] |
| < 1000 nM | Cc1nn(C(=O)NCc2ccc(Cl)cc2)c(C)c1Cc1c[nH]c2ncc(Cl)cc12 [P-0159, 4-(5-Chloro-1H-pyrrolo[2,3-b]pyridin-3-ylmethyl)-3,5-dimethyl-pyrazole-1-carboxylic acid 4-chloro-benzylamide] |
| < 1000 nM | Clc1ccc(CNc2ccc(Cc3c[nH]c4ncccc34)c(Cl)n2)cc1 [P-0161, (4-Chloro-benzyl)-[6-chloro-5-(1H-pyrrolo[2,3-b]pyridin-3-ylmethyl)-pyridin-2-yl]-amine] |
| < 1000 nM | Cc1nc(NCc2ccc(F)cc2)sc1Cc1c[nH]c2ncccc12 [P-0163, (4-Fluoro-benzyl)-[4-methyl-5-(1H-pyrrolo[2,3-b]pyridin-3-ylmethyl)-thiazol-2-yl]-amine] |
| < 1000 nM | FC(F)(F)c1ccc(CNc2nc(Cl)c(Cc3c[nH]c4ncccc34)s2)cn1 [P-0173, [4-Chloro-5-(1H-pyrrolo[2,3-b]pyridin-3-ylmethyl)-thiazol-2-yl]-(6-trifluoromethyl-pyridin-3-ylmethyl)-amine] |
| < 1000 nM | FC(F)(F)c1ccc(CNc2ccc(Cc3c[nH]c4ncccc34)cn2)cn1 [P-0182, [5-(1H-Pyrrolo[2,3-b]pyridin-3-ylmethyl)-pyridin-2-yl]-(6-trifluoromethyl-pyridin-3-ylmethyl)-amine] |
| < 1000 nM | COc1cnc2[nH]cc(Cc3ccc(NCc4ccc(C(F)(F)F)nc4)nc3F)c2c1 [P-0187, [6-Fluoro-5-(5-methoxy-1H-pyrrolo[2,3-b]pyridin-3-ylmethyl)-pyridin-2-yl]-(6-trifluoromethyl-pyridin-3-ylmethyl)-amine] |
| < 1000 nM | Fc1nc(NCc2ccc(C(F)(F)F)nc2)ccc1Cc1c[nH]c2ncccc12 [P-0188, [6-Fluoro-5-(1H-pyrrolo[2,3-b]pyridin-3-ylmethyl)-pyridin-2-yl]-(6-trifluoromethyl-pyridin-3-ylmethyl)-amine] |
| < 1000 nM | Clc1cnc2[nH]cc(Cc3sc(NCc4ccccc4)nc3Cl)c2c1 [P-0192, Benzyl-[4-chloro-5-(5-chloro-1H-pyrrolo[2,3-b]pyridin-3-ylmethyl)-thiazol-2-yl]-amine] |
| < 1000 nM | CCc1nc(C)c(CNc2nc(Cl)c(Cc3c[nH]c4ncccc34)s2)[nH]1 [P-0205, [4-Chloro-5-(1H-pyrrolo[2,3-b]pyridin-3-ylmethyl)-thiazol-2-yl]-(2-ethyl-5-methyl-3H-imidazol-4-ylmethyl)-amine] |
| < 1000 nM | Cc1cc(CNc2nc(Cl)c(Cc3c[nH]c4ncccc34)s2)sc1C [P-0208, [4-Chloro-5-(1H-pyrrolo[2,3-b]pyridin-3-ylmethyl)-thiazol-2-yl]-(4,5-dimethyl-thiophen-2-ylmethyl)-amine] |
| < 1000 nM | Brc1cnccc1CNc1ccc(Cc2c[nH]c3ncccc23)cn1 [P-0214, (3-Bromo-pyridin-4-ylmethyl)-[5-(1H-pyrrolo[2,3-b]pyridin-3-ylmethyl)-pyridin-2-yl]-amine] |
| < 1000 nM | Clc1ccccc1CNc1ccc(Cc2c[nH]c3ncccc23)cn1 [P-0216, (2-Chloro-benzyl)-[5-(1H-pyrrolo[2,3-b]pyridin-3-ylmethyl)-pyridin-2-yl]-amine] |
| < 1000 nM | Cc1ccccc1CNc1ccc(Cc2c[nH]c3ncccc23)cn1 [P-0217, (2-Methyl-benzyl)-[5-(1H-pyrrolo[2,3-b]pyridin-3-ylmethyl)-pyridin-2-yl]-amine] |
| < 1000 nM | COc1cncc(CNc2ccc(Cc3c[nH]c4ncccc34)cn2)c1 [P-0222, (5-Methoxy-pyridin-3-ylmethyl)-[5-(1H-pyrrolo[2,3-b]pyridin-3-ylmethyl)-pyridin-2-yl]-amine] |
| < 1000 nM | COc1cccc(CNc2ccc(Cc3c[nH]c4ncccc34)cn2)n1 [P-0224, (6-Methoxy-pyridin-2-ylmethyl)-[5-(1H-pyrrolo[2,3-b]pyridin-3-ylmethyl)-pyridin-2-yl]-amine] |
| < 1000 nM | FC(F)(F)c1ccccc1CNc1ccc(Cc2c[nH]c3ncccc23)cn1 [P-0226, [5-(1H-Pyrrolo[2,3-b]pyridin-3-ylmethyl)-pyridin-2-yl]-(2-trifluoromethyl-benzyl)-amine] |

Continued, molecule first:

| Structure (SMILES) | IC50 |
| --- | --- |
| Cc1nc(-c2ccc(C(F)(F)F)cc2)sc1Cn1nc(C)c(Cc2c[nH]c3ncccc23)c1C [P-0143, 3-{3,5-Dimethyl-1-[4-methyl-2-(4-trifluoromethyl-phenyl)-thiazol-5-ylmethyl]-1H-pyrazol-4-ylmethyl}-1H-pyrrolo[2,3-b]pyridine] | < 1000 nM |
| Cc1nc(-c2ccccc2)sc1Cn1nc(C)c(Cc2c[nH]c3ncccc23)c1C [P-0144, 3-[3,5-Dimethyl-1-(4-methyl-2-phenyl-thiazol-5-ylmethyl)-1H-pyrazol-4-ylmethyl]-1H-pyrrolo[2,3-b]pyridine] | < 1000 nM |
| COc1ccccc1CNC(=O)n1nc(C)c(Cc2c[nH]c3ncccc23)c1C [P-0145, 3,5-Dimethyl-4-(1H-pyrrolo[2,3-b]pyridin-3-ylmethyl)-pyrazole-1-carboxylic acid 2-methoxy-benzylamide] | < 1000 nM |
| Fc1ccc(Cc2c[nH]c3ncccc23)c(F)n1 [P-0154, 3-(2,6-difluoro-pyridin-3-ylmethyl)-1H-pyrrolo[2,3-b]pyridine] | < 1000 nM |
| Cn1nc(NCc2ccc(F)cc2)cc1Cc1c[nH]c2ncc(Cl)cc12 [P-0170, [5-(5-Chloro-1H-pyrrolo[2,3-b]pyridin-3-ylmethyl)-1-methyl-1H-pyrazol-3-yl]-(4-fluoro-benzyl)-amine] | < 1000 nM |
| FC(F)(F)c1ccc(CNc2ccc(Cc3c[nH]c4ncccc34)c(Cl)n2)cn1 [P-0174, [6-Chloro-5-(1H-pyrrolo[2,3-b]pyridin-3-ylmethyl)-pyridin-2-yl]-(6-trifluoromethyl-pyridin-3-ylmethyl)-amine] | < 1000 nM |
| FC(F)(F)c1ccc(CNc2ccc(Cc3c[nH]c4ncc(Cl)cc34)c(Cl)n2)cn1 [P-0176, [6-Chloro-5-(5-chloro-1H-pyrrolo[2,3-b]pyridin-3-ylmethyl)-pyridin-2-yl]-(6-trifluoromethyl-pyridin-3-ylmethyl)-amine] | < 1000 nM |
| Fc1nc(NCc2ccc(C(F)(F)F)nc2)ccc1Cc1c[nH]c2ncc(Cl)cc12 [P-0186, [5-(5-Chloro-1H-pyrrolo[2,3-b]pyridin-3-ylmethyl)-6-fluoro-pyridin-2-yl]-(6-trifluoromethyl-pyridin-3-ylmethyl)-amine] | < 1000 nM |
| COc1ccc(CNc2nc(Cl)c(Cc3c[nH]c4ncc(Cl)cc34)s2)cn1 [P-0190, [4-Chloro-5-(5-chloro-1H-pyrrolo[2,3-b]pyridin-3-ylmethyl)-thiazol-2-yl]-(6-methoxy-pyridin-3-ylmethyl)-amine] | < 1000 nM |
| COc1cccc(CNc2nc(Cl)c(Cc3c[nH]c4ncc(Cl)cc34)s2)c1 [P-0193, [4-Chloro-5-(5-chloro-1H-pyrrolo[2,3-b]pyridin-3-ylmethyl)-thiazol-2-yl]-(3-methoxy-benzyl)-amine] | < 1000 nM |
| Clc1ccc(CNc2nc(Cl)c(Cc3c[nH]c4ncc(Cl)cc34)s2)cc1 [P-0194, (4-Chloro-benzyl)-[4-chloro-5-(5-chloro-1H-pyrrolo[2,3-b]pyridin-3-ylmethyl)-thiazol-2-yl]-amine] | < 1000 nM |
| CCc1nc(C)c(CNc2nc(Cl)c(Cc3c[nH]c4ncc(Cl)cc34)s2)[nH]1 [P-0197, [4-Chloro-5-(5-chloro-1H-pyrrolo[2,3-b]pyridin-3-ylmethyl)-thiazol-2-yl]-(2-ethyl-5-methyl-3H-imidazol-4-ylmethyl)-amine] | < 1000 nM |
| COc1cccc(CNc2nc(Cl)c(Cc3c[nH]c4ncc(Cl)cc34)s2)n1 [P-0199, [4-Chloro-5-(5-chloro-1H-pyrrolo[2,3-b]pyridin-3-ylmethyl)-thiazol-2-yl]-(6-methoxy-pyridin-2-ylmethyl)-amine] | < 1000 nM |
| c1ccc(CCNc2ccc(Cc3c[nH]c4ncccc34)cn2)cc1 [P-0211, Phenethyl-[5-(1H-pyrrolo[2,3-b]pyridin-3-ylmethyl)-pyridin-2-yl]-amine] | < 1000 nM |
| Fc1ccc(CNc2ccc(Cc3c[nH]c4ncccc34)cn2)c(F)c1 [P-0212, (2,4-Difluoro-benzyl)-[5-(1H-pyrrolo[2,3-b]pyridin-3-ylmethyl)-pyridin-2-yl]-amine] | < 1000 nM |
| Fc1ccccc1CNc1ccc(Cc2c[nH]c3ncccc23)cn1 [P-0213, (2-Fluoro-benzyl)-[5-(1H-pyrrolo[2,3-b]pyridin-3-ylmethyl)-pyridin-2-yl]-amine] | < 1000 nM |
| COc1ncccc1CNc1ccc(Cc2c[nH]c3ncccc23)cn1 [P-0215, (2-Methoxy-pyridin-3-ylmethyl)-[5-(1H-pyrrolo[2,3-b]pyridin-3-ylmethyl)-pyridin-2-yl]-amine] | < 1000 nM |
| Cn1c(CNc2ccc(Cc3c[nH]c4ncccc34)cn2)nc2ccccc21 [P-0218, (1-Methyl-1H-benzoimidazol-2-ylmethyl)-[5-(1H-pyrrolo[2,3-b]pyridin-3-ylmethyl)-pyridin-2-yl]-amine] | < 1000 nM |
| COc1ccc(CNc2ccc(Cc3c[nH]c4ncccc34)cn2)cn1 [P-0219, (6-Methoxy-pyridin-3-ylmethyl)-[5-(1H-pyrrolo[2,3-b]pyridin-3-ylmethyl)-pyridin-2-yl]-amine] | < 1000 nM |
| Fc1ccc(CNc2ccc(Cc3c[nH]c4ncccc34)cn2)c(Cl)c1 [P-0221, (2-Chloro-4-fluoro-benzyl)-[5-(1H-pyrrolo[2,3-b]pyridin-3-ylmethyl)-pyridin-2-yl]-amine] | < 1000 nM |
| Fc1ccc(CNc2ccc(Cc3c[nH]c4ncccc34)cn2)c(C(F)(F)F)c1 [P-0225, (4-Fluoro-2-trifluoromethyl-benzyl)-[5-(1H-pyrrolo[2,3-b]pyridin-3-ylmethyl)-pyridin-2-yl]-amine] | < 1000 nM |
